In experiment [1] the test system is α-1,3 glucanase I. The experiment can be described thus: Effects of metallic ions and enzyme inhibitors on α-1,3 glucanase I. The experiment is classed as biochemical, Bacillus circulans BC-8. Here is the method: (§1) Both α-1,3 glucanase I and II are inhibited by Fe^2+, Pb^2+, and […].
(§2) 0.1 ml of α-1,3 glucanase solution was added to 0.2 ml of 1.3-α-D glucan suspension (6 mg/ml, 50 mM phosphate buffer, pH 7.0), and the mixture was incubated for 16 hours at 40° C. The reaction was terminated by adding ethanol (final concentration was 60%), and amount of the sugar which had become soluble in this condition was determined by the phenol sulfuric acid method.
(§3) Under the above-mentioned reaction conditions, the enzyme activity which produced an amount of sugar soluble in 60% ethanol and corresponding to 100 nmol of glucose was defined as one unit. In practice, α-1,3 glucanase solutions of various concentrations were used for developing the standard curve, and the enzyme activity was read out on it.

Experiment [2] has as its system α-1,3 glucanase II. In words: Effects of metallic ions and enzyme inhibitors on α-1,3 glucanase II. The format is biochemical, Bacillus circulans BC-8. On the procedure: as §1, §2, §3
The target in experiment [3] is T1, dextranase (Arthrobacter sp., UniProt P39652).
T1 construct: the mature dextranase protein consisting of 591 amino acid residues; endogenous in cells; host or cells: Arthrobacter sp; CB-8 (FERM BP-995), enzyme purified from the culture
T1 sequence (P39652 50-640): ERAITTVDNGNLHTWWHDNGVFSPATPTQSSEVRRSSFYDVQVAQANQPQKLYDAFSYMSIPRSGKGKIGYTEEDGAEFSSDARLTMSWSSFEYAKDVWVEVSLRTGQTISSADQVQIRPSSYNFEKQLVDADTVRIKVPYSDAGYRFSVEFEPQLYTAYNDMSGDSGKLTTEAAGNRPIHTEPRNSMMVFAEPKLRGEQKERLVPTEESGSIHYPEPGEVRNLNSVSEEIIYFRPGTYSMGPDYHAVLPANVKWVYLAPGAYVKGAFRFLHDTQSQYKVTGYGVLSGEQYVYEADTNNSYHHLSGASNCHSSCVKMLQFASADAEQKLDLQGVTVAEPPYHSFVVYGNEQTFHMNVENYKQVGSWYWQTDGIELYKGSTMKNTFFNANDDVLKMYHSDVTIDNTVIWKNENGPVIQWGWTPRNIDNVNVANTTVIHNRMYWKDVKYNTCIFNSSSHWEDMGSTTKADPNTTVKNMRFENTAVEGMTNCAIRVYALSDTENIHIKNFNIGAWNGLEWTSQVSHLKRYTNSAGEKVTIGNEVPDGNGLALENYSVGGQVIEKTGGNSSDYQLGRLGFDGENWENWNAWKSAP
The experiment can be described thus: Effects of metallic ions and enzyme inhibitors on dextranase activity. The format is biochemical, Arthrobacter sp. CB-8. The conditions noted are these: for inhibition of dextranase (in words): summary of Table 6; for activity at 1000 µM: read-out: Relative activity (%) of dextranase. On the procedure:
0.1 ml of the enzyme solution is added to 0.9 ml of 50 mM phosphate buffer, pH 6.5, containing 0.555% dextran (molecular weight: 10,000~20,000),and the mixture is incubated at 37° C. for 30 minutes. After the reaction is stopped, the amount of reducing sugar produced is measured by Somogyi-Nelson method. The enzymatic activity which increases a reducing power equivalent to 1 μ mole of glucose per 1 minute was defined as one unit.

Where [4] appears, read: metallic ion or inhibitor 0.1 mM, none = 100.
Where [5] appears, read: metallic ion or inhibitor 1 mM, none = 100.

SMILES strings stand for the structures. Where two headings read alike, the source gives them in different places.

For `O=[N+]([O-])[O-].[Ag+]` [AgNO3], in experiment [1], the “inhibition of α-1,3 glucanase I enzymatic activity” value is “significant inhibition”. Also, the “inhibition of α-1,3 glucanase II enzymatic activity” value in experiment [2] is reported as “significant inhibition”. Moreover, the “Relative activity (%) of dextranase” value in experiment [3] (setting [4]) is on record as 0%. The “inhibition of dextranase (in words)” value in experiment [3] is “significantly inhibited”.

With `[Ca+2].[Cl-].[Cl-]` [CaCl2], in experiment [3] (setting [5]), the “Relative activity (%) of dextranase” value is 113%.

As for `O=S(=O)([O-])[O-].[Cu+2]` [CuSO4], the “Relative activity (%) of dextranase” value in experiment [3] (setting [4]) is 7%. Further, the “inhibition of dextranase (in words)” value in experiment [3] is reported as “significantly inhibited”.

Take `O=C(O)CN(CCN(CC(=O)O)CC(=O)O)CC(=O)O` [EDTA]: the activity at 1000 µM in experiment [3] was 122%.

In the case of `[Cl][Fe][Cl]` [FeCl2], the “inhibition of α-1,3 glucanase I enzymatic activity” value in experiment [1] was “inhibited”. Besides, in experiment [2], the “inhibition of α-1,3 glucanase II enzymatic activity” value is reported as “inhibited”. Also, in experiment [3] (setting [5]), the “Relative activity (%) of dextranase” value amounted to 115%.

On to `[Cl][Fe]([Cl])[Cl]` [FeCl3], for which, in experiment [3] (setting [5]), the “Relative activity (%) of dextranase” value is listed as 104%.

For `[Cl][Hg][Cl]` [HgCl2], the “inhibition of α-1,3 glucanase I enzymatic activity” value in experiment [1] is “significant inhibition”. Also, the “inhibition of α-1,3 glucanase II enzymatic activity” value in experiment [2] is “significant inhibition”. Besides, the “Relative activity (%) of dextranase” value in experiment [3] (setting [4]) is on record as 0%. Besides, the “inhibition of dextranase (in words)” value in experiment [3] is recorded as “significantly inhibited”.

`[Cl-].[K+]` [KCl]: in experiment [3] (metallic ion or inhibitor 10 mM, none = 100), the “Relative activity (%) of dextranase” value turned out to be 113%.

Turning to `O=S(=O)([O-])[O-].[Mg+2]` [MgSO4], in experiment [3] (setting [5]), the “Relative activity (%) of dextranase” value is listed as 113%.

With `[Cl][Mn][Cl]` [MnCl2], the “Relative activity (%) of dextranase” value in experiment [3] (setting [5]) is listed as 77%.

`[Cl-].[Na+]` [NaCl]: the “Relative activity (%) of dextranase” value in experiment [3] worked out at 100%.

With `[Cl][Pb][Cl]` [PbCl2], in experiment [1], the “inhibition of α-1,3 glucanase I enzymatic activity” value is given as “inhibited”. Besides, the “inhibition of α-1,3 glucanase II enzymatic activity” value in experiment [2] is “inhibited”. The “Relative activity (%) of dextranase” value in experiment [3] (setting [5]) came to 103%.

Take `[Cl-].[Cl-].[Zn+2]` [ZnCl2]: the “Relative activity (%) of dextranase” value in experiment [3] (setting [5]) stood at 77%.

For the compound `c1cnc2c(c1)ccc1cccnc12` [o-Phenanthroline], in experiment [3] (setting [5]), the activity at 1000 µM is 100%.

On to `O=C(O)c1cc[c]([Hg][Cl])cc1` [pCMB, p-chloromercuribenzoic acid], for which the “inhibition of α-1,3 glucanase I enzymatic activity” value in experiment [1] is “significant inhibition”. For the same compound, the “inhibition of α-1,3 glucanase II enzymatic activity” value in experiment [2] is reported as “significant inhibition”. Also, the “Relative activity (%) of dextranase” value in experiment [3] (setting [5]) is listed as 29%. Also, the “inhibition of dextranase (in words)” value in experiment [3] is “inhibited strongly”.
